From patent US9868695B2 (priority 2014, dated 2018) come the findings set out here.

Each structure is given as a SMILES string.

The subject of assay [1] is Colo-205. Kind of assay: Antiproliferative activity, MTT assay, Colo-205. Conditions: Homo sapiens, 48 h. Type of assay: cell-based. The method, then:
(§1) Human colon cancer cell lines HCT-116 (NCI, passage no. 5) and Colo-205 116 (NCI, passage no. 3) were procured from National Cancer Institute, USA. HCT-116 and Colo-205 cells were grown in McCoy's 5A and RPMI growth medium respectively containing 10% FCS, 100 U penicillin and […] per mL medium. Cells were grown in CO2 incubator (Thermocon Electron Corporation, Houston, Tex.) at 37° C. with 95% humidity and 5% CO2 gas environment. Cells treated with tested materials were dissolved in DMSO while the untreated control cultures received only the vehicle (DMSO<0.2%). Cells were seeded in 96 well plates and exposed to tested compounds at various concentrations for 48 h time interval. MTT dye (2.5 mg/ml in PBS) was added 4 hrs priors to experiment termination. The plates were then centrifuged at 1500 rpm for 15 min and the supernatant was discarded, and MTT formazan crystals were dissolved in 150 μl of DMSO. The OD measured at 570 nm with reference wavelength of 620 nm.
(§2) The percentages of cell viability and growth inhibition were calculated using formulas: […]
(Tetrazolium dyes change colour on reduction, which living cells bring about.)

Assay [2] has as its system HCT-116. Kind of assay: Antiproliferative activity, MTT assay, HCT-116. Type of assay: cell-based, Human. Conditions: 48 h. The method, then:
as §1, §2

On to `COc1cc2c(c(OC)c1OC)-c1ccc(Nc3ccc(Cl)c(C(F)(F)F)c3)c(=O)cc1[C@@H](NC(C)=O)CC2` [Compound 1g, N-[(7S)-1,2,3-Trimethoxy-9-oxo-10-[3-(trifluoromethyl)-4-chloro-phenylamino]-5,6,7,9-tetrahydrobenzo[a]heptalen-7-yl]acetamide], for which the IC50 (usually the concentration that inhibits the measured activity by half) in assay [1] came to 30 nM; in assay [2], 40 nM.
